The numbers were not newly measured in patent publication US12290506B2, “Compositions and formulations for use of a PK inhibitor for the prevention, treatment, and improvement of skin diseases, conditions, and disorders” (DermBiont, Inc., priority 2022, dated 2025), which cites them from elsewhere.

In this data set the test system is UV induced neo-melanogenesis. Particulars: topical application, guinea pig model.

For the substance bisindolylmaleimide, the UV induced neo-melanogenesis entry is reported as “inhibit UV induced neo-melanogenesis”.
